Laboratory results: PubChem BioAssay (NCI)
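Protocol summary: plate cells (96-well), add compound at 5 concentrations, incubate 48 h, interpolate endpoints linearly. The concentration for full growth arrest is given as TGI.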

Experiments:
Test in all cases: growth of human tumour cells (NCI), 48 h
[1] = test system: EKVX NSCLC
[2] = test system: IGROV1 ovarian
[3] = test system: PC-3 prostate
[4] = test system: SK-OV-3 ovarian
[5] = test system: OVCAR-3 ovarian
[6] = test system: SK-MEL-5 melanoma
[7] = test system: NCI-H460 lung
[8] = test system: SN12C renal
[9] = test system: SF-268 CNS
[10] = test system: U251 CNS
[11] = test system: HOP-92 NSCLC
[12] = test system: MDA-N
[13] = test system: MOLT-4 leukemia

| SMILES | TGI [1] [µM] | TGI [2] [µM] | TGI [3] [µM] | TGI [4] [µM] | TGI [5] [µM] | TGI [6] [µM] | TGI [7] [µM] | TGI [8] [µM] | TGI [9] [µM] | TGI [10] [µM] | TGI [11] [µM] | TGI [12] [µM] | TGI [13] [µM] |
| --- | --- | --- | --- | --- | --- | --- | --- | --- | --- | --- | --- | --- | --- |
| COc1ccc(Nc2nc(N)c(C(=O)c3ccc(OC)cc3)s2)cc1 | > 89.1 | 32 | 22.1 | 28.7 | 2.1 | > 100 | > 54.8 | > 64.5 | > 100 | 17.2 | > 86.5 | – | – |
| CO[C@@](c1ccccc1)(c1nc(C#N)c(N)o1)C(F)(F)F | > 100 | > 100 | > 100 | > 100 | > 100 | > 100 | – | > 100 | – | > 100 | > 100 | > 100 | > 100 |
| O=C(O)c1cc(-c2ccccc2O)nc2ccccc12 | > 100 | > 100 | – | > 100 | > 100 | > 100 | > 100 | > 100 | > 100 | > 100 | – | – | > 100 |
| NC12CC3CC(C1)CC(Cl)(C3)C2 | > 100 | > 100 | – | > 100 | > 100 | – | > 100 | – | – | > 100 | > 100 | – | > 100 |
| COC1=CC(C2c3cc4c(cc3[C@@H](Nc3ccc([N+](=O)[O-])cc3)C3COC(=O)[C@H]23)OCO4)=CC(=O)C1=O (stereo partly specified) | > 95.2 | > 65.2 | – | 6.98 | 54.9 | 19.9 | 7.08 | 7.59 | 12.6 | 4.75 | > 53 | – | 10.5 |
| C#CCCOC1(OC)N=NC(C)(C)O1 (stereo unspecified) | > 100 | > 100 | > 100 | – | > 100 | > 100 | > 100 | > 100 | > 100 | > 100 | > 100 | > 100 | > 100 |
| Cc1cc(NC(=O)C(=O)Cc2cnc3ccccc3n2)c(S(=O)(=O)O)cc1Cl | > 100 | > 100 | > 100 | > 100 | > 100 | > 100 | > 100 | > 100 | > 100 | > 100 | > 100 | – | > 100 |
| COC(=O)C(/C(=N/N)C(=O)Nc1cc(Cl)c(Cl)cc1Cl)c1nc2ccc(Cl)cc2[nH]c1=O (stereo unspecified) | > 100 | > 100 | > 100 | > 100 | > 100 | > 100 | > 100 | > 100 | > 100 | > 100 | > 100 | > 100 | – |
| C=CCNC(=O)/C(Cc1cc(Br)c(OC)c(Br)c1O)=N\O | 25.2 | 47.8 | > 100 | – | 10.7 | 11.6 | 15.9 | – | 15.7 | 39.8 | 24.1 | 1.07 | > 100 |
| CN1CC2=C(NC(=S)NC2c2ccc(Cl)cc2)/C(=C/c2ccc(Cl)cc2)C1 (stereo unspecified) | 68.8 | 32.6 | 23.1 | 31.4 | 29.3 | 26.8 | 28.1 | 36.4 | 50.4 | 33.3 | – | 34.9 | 30.2 |
| COc1cccc(/C(C=O)=C(\Cl)c2ccc(OC)c(OC)c2)c1 | 33.9 | 41.8 | – | 58.8 | 30.2 | 25.3 | 28 | 27.8 | 25.3 | 27.4 | 38.7 | – | 42.5 |
| CC(=O)OC1OC2C(NC(=O)OC(C)(C)C)C1CC2(OCc1ccccc1)OCc1ccccc1 (stereo unspecified) | > 100 | 90.3 | – | 74.9 | 38.5 | 33.1 | > 100 | 75.2 | > 100 | 32.4 | 30.3 | – | 62.9 |
| NC(=O)c1csc(CCCCCCc2nc(C(N)=O)cs2)n1 | > 100 | > 100 | – | > 100 | > 100 | > 100 | > 100 | > 100 | > 100 | > 65.1 | > 100 | – | > 100 |
| CC(=O)NCC1(c2ccccc2)CCN(CC2COc3ccccc3O2)CC1 (stereo unspecified) | > 100 | > 100 | > 100 | > 100 | > 100 | > 100 | > 100 | > 100 | > 100 | > 100 | – | > 100 | > 100 |
| Nc1nc(N)nc(-c2cnccn2)n1 | > 100 | > 100 | > 100 | > 100 | > 100 | – | > 100 | > 100 | > 100 | > 100 | > 100 | – | > 100 |
| CC(=O)OCC1OC(n2c3c(c(-c4ccc(Cl)cc4)c(C#N)c2=S)C(=O)CC(C)(C)C3)C(OC(C)=O)C(OC(C)=O)C1OC(C)=O (stereo unspecified) | – | > 100 | 63.6 | – | > 74 | 48.2 | > 100 | > 53.4 | 29 | 50.3 | > 100 | > 54.8 | > 100 |
| CCOc1ccc(N/C(=C(/C(Cl)=C(/Cl)NCCO)[N+](=O)[O-])n2nnc3ccccc32)cc1 | > 100 | – | 86.4 | > 100 | 35.2 | – | > 100 | 49.1 | 41 | 58.7 | – | > 100 | > 100 |
| NC(=O)C(=CN1C(=O)CC(=O)NC1=S)C(N)=O | > 100 | > 100 | – | > 100 | > 100 | > 100 | > 100 | > 100 | > 100 | > 100 | > 100 | – | > 100 |
| c1ccc2[nH]c3[nH]c4[nH]c5ccccc5[nH]c4[nH]c3[nH]c2c1 | > 100 | > 100 | > 100 | > 100 | > 100 | > 100 | > 100 | > 100 | > 100 | > 100 | – | > 100 | > 100 |
| CN(C)CCCSc1c2ccccc2nc2cc(NCC(=O)Nc3ccccc3-c3ccccc3NC(=O)CNc3ccc4c(SCCCN(C)C)c5ccccc5nc4c3)ccc12 | > 100 | > 100 | – | > 100 | > 100 | > 100 | > 100 | > 100 | > 100 | > 100 | > 100 | – | > 100 |

| SMILES | TGI [1] [µM] | TGI [2] [µM] | TGI [3] [µM] | TGI [4] [µM] | TGI [5] [µM] | TGI [6] [µM] | TGI [7] [µM] | TGI [8] [µM] | TGI [9] [µM] | TGI [10] [µM] | TGI [11] [µM] | TGI [12] [µM] | TGI [13] [µM] |
| --- | --- | --- | --- | --- | --- | --- | --- | --- | --- | --- | --- | --- | --- |
| Cn1c(=O)c2c(nc(C[N+]3([O-])CCOCC3)n2C)n(C)c1=O | > 100 | > 100 | – | > 100 | > 100 | > 100 | > 100 | > 100 | > 100 | > 100 | > 100 | – | > 100 |
| C=C(C)[C@@H]1CC[C@@H](C)[C@](O)([C@@H]2C[C@@H]([C@H](COC(=O)c3ccccc3)OC(=O)c3ccccc3)OC2=O)C1 | > 100 | > 100 | > 100 | > 100 | > 100 | > 100 | > 100 | > 100 | > 100 | > 100 | – | > 100 | > 100 |
| CCCCSC1=N/C(=C\c2ccco2)C(=O)N1 | > 100 | > 100 | > 100 | > 100 | > 100 | > 100 | > 100 | > 100 | > 100 | > 100 | – | > 100 | > 100 |
| COc1ccc(-c2c3c(n(C4OC(CO)C(O)C(O)C4O)c(=S)c2C#N)CC(C)(C)CC3=O)cc1 (stereo unspecified) | – | > 100 | > 100 | – | > 100 | > 100 | > 100 | > 100 | > 100 | > 100 | > 100 | > 100 | > 100 |
| O=c1cc(NCC2CCCCC2)[nH]c(=O)[nH]1 | > 100 | > 100 | > 100 | – | > 100 | > 100 | > 100 | > 100 | > 100 | > 100 | > 100 | > 100 | – |
| CCOC(=O)c1cc(C2CCN(CC(C)CC)C2=S)c(C(=O)/C=C(/C)N)[nH]1 (stereo unspecified) | > 50 | > 50 | > 50 | > 50 | > 50 | > 50 | > 50 | > 50 | > 50 | > 50 | – | > 50 | > 50 |
| Cc1nccc2c1cnc1ccnn12 | > 100 | > 100 | – | > 100 | > 100 | > 100 | > 100 | > 100 | > 100 | > 100 | > 100 | – | > 100 |
| O=C1C(Cl)C(c2ccc(Cl)cc2)N1n1cnc2ccccc2c1=O (stereo unspecified) | 82.4 | > 100 | – | > 100 | > 100 | > 100 | > 100 | > 100 | > 100 | > 100 | – | – | > 100 |
| COC(C/C(=C/CO[Si](C(C)C)(C(C)C)C(C)C)C(=O)Nc1ccccc1I)OC | – | 28.7 | 62.2 | > 100 | 51.8 | > 100 | > 100 | > 100 | > 100 | > 100 | 61.7 | > 100 | > 100 |
| CO/C(=N\N=C\c1ccc(OC)cc1OC)c1ccncc1 | – | > 10 | > 10 | > 10 | – | > 10 | > 10 | > 10 | > 10 | > 10 | – | – | > 10 |
| COC(=O)[C@H]1C=C[C@@H](C)n2c(=O)c3ccccc3c(=O)n21 | > 100 | > 100 | – | > 100 | > 100 | > 100 | > 100 | > 100 | > 100 | > 100 | > 100 | – | > 100 |
| CCOC(=O)C1=C(O)c2ccccc2C(=O)C1=O | > 100 | > 100 | – | > 100 | > 100 | > 100 | > 100 | > 100 | > 100 | > 100 | > 100 | – | > 100 |
| CC1=CC2(O)OC3(CC2=C(C)C)C(C)CCC13 (stereo unspecified) | > 100 | > 100 | – | > 100 | > 100 | > 100 | – | > 100 | > 100 | > 100 | > 100 | > 100 | > 100 |
| COc1ccc(C2CC(=O)Oc3ccccc3O2)cc1 (stereo unspecified) | > 100 | > 100 | > 100 | > 100 | > 100 | > 100 | > 100 | > 100 | > 100 | > 100 | – | > 100 | > 100 |
| Cn1c2ccccc2c(=O)c2c(O)cc3c(c21)C=CC1(CCCC1)O3 | > 100 | > 100 | > 100 | > 100 | > 100 | > 100 | > 100 | > 100 | > 100 | > 100 | > 100 | – | > 100 |
| NC(=O)C12C3C4C1C1C2C3C41C(N)=O (stereo unspecified) | > 100 | > 100 | – | > 100 | > 100 | > 100 | > 100 | > 100 | > 100 | > 100 | > 100 | – | > 100 |
| CCOC(=O)c1nc2ccc(Cl)cc2c2c1CCO2 | > 100 | > 100 | – | > 100 | > 100 | > 100 | > 100 | > 100 | > 100 | > 100 | – | – | > 100 |
| CC(=N/NC(=S)Nc1c(C)n(C)n(-c2ccccc2)c1=O)/C(C)=N\NC(=S)Nc1c(C)n(C)n(-c2ccccc2)c1=O | > 100 | – | > 100 | > 100 | > 100 | > 100 | > 100 | – | > 100 | > 100 | > 100 | – | > 100 |
| Cc1cn(CC2=NCC(C)(C)CN2)c(=O)[nH]c1=O | > 100 | > 100 | > 100 | > 100 | – | > 100 | > 100 | > 100 | > 100 | > 100 | > 100 | > 100 | – |
